# Key:
# human PDGFRβ = biological target: T1, human PDGFRβ (Homo sapiens, UniProt P09619); assay: PDGF dependent cell proliferation (MTS); assay type: cell-based; details: PDGFRβ NIH-3T3 cells, PDGF BB 50 ng/ml, 72 hours, serum-free medium; read-out: GI50 nM (PDGF ligand-dependent cell proliferation)
# T1 construct: expressed in transfected cells
# HUVEC cells = assay: VEGF dependent cell proliferation (MTS); assay type: cell-based; details: Homo sapiens, VEGF 165 50 ng/ml, 72 hours, serum-free medium, read-out: GI50 nM (VEGF ligand-dependent cell proliferation)
# [1] = tested on: total HDAC enzyme (HeLa extract); assay: In vitro inhibition of total HDAC enzyme activity (HDAC Fluorimetric Assay/Drug Discovery Kit); assay type: biochemical
# Class I HDAC = assay: P21 reporter gene assay in HeLa cells; assay type: cell-based; details: 24 hours
# A-498 = assay: Tumor cell proliferation (MTS), A-498; assay type: cell-based; details: Homo sapiens, A498; 72 hours, complete medium
# Protocol: (§1) Measurement of In Vivo Cell Proliferation:
# (§2) Tumor cells were trypsinized and plated into 96-well plates at 3,000 per well and incubated in complete medium with 10% FBS for 24 hours. Compounds were added over a final concentration range of 100 μmol/L to 100 nmol/L in 0.1% DMSO and incubated for 72 hours in complete medium. The effects on proliferation were determined by addition of MTS reagent (Promega) according to the instruction, incubation for 2 hours at 37° C. in CO2 incubator, and record the absorbance at 490 nm using an ELISA plate reader.
# A549 = assay: Tumor cell proliferation (MTS), A549; assay type: cell-based; details: Homo sapiens, 72 hours, complete medium
# Protocol: as §1, §2
# (§3) Human Cell Lines are Listed Below:
# A549: Non small cell lung carcinoma
# Bel-7402 = assay: Tumor cell proliferation (MTS), Bel-7402; assay type: cell-based; details: Homo sapiens, 72 hours, complete medium
# Protocol: as §1, §2, §3
# Bel-7402: Hepatocellular carcinoma
# HCT-8 = assay: Tumor cell proliferation (MTS), HCT-8; assay type: cell-based; details: Homo sapiens, 72 hours, complete medium
# Protocol: as §1, §2, §3
# HCT-8: Ileocecal colorectal adenocarcinoma
# MCF-7 = assay: Tumor cell proliferation (MTS), MCF-7; assay type: cell-based; details: Homo sapiens, MCF7; 72 hours, complete medium
# Protocol: as §1, §2, §3
# MCF-7: Mammary gland adenocarcinoma
# [2] = Body weight in A549 xenograft study (Example 51); assay type: in vivo, nu/nu mice
# Protocol: The antitumor activity of compound 31 was measured in human A549 lung cancer xenograft model. […] Then the cultured A549 human lung cancer cells were implanted into the armpit of 50 mice. When tumors had reached approximately 6 mm in diameter, the mice were divided into 6 groups randomly. Each group has 8 mice. One group was treated with vehicle. One group was treated with sutent, the positive control drug. […] Each group was dosed orally once a day for 24 days. Tumor volumes as established by caliper measurements were recorded twice per week, along with body weights. At the end of study, the mice were killed, and tumors were weighed. The tumor growth inhibition of each group was calculated using the formula {[(the average tumor weight of vehicle group)-(the average tumor weight of drug group)]/(the average tumor weight of vehicle group)}×100%.
# [3] = 5 mg/kg orally once a day for 24 days
# [4] = 10 mg/kg orally once a day for 24 days
# [5] = 20 mg/kg orally once a day for 24 days
# [6] = 40 mg/kg orally once a day for 24 days
# T1 sequence (P09619 33-1106): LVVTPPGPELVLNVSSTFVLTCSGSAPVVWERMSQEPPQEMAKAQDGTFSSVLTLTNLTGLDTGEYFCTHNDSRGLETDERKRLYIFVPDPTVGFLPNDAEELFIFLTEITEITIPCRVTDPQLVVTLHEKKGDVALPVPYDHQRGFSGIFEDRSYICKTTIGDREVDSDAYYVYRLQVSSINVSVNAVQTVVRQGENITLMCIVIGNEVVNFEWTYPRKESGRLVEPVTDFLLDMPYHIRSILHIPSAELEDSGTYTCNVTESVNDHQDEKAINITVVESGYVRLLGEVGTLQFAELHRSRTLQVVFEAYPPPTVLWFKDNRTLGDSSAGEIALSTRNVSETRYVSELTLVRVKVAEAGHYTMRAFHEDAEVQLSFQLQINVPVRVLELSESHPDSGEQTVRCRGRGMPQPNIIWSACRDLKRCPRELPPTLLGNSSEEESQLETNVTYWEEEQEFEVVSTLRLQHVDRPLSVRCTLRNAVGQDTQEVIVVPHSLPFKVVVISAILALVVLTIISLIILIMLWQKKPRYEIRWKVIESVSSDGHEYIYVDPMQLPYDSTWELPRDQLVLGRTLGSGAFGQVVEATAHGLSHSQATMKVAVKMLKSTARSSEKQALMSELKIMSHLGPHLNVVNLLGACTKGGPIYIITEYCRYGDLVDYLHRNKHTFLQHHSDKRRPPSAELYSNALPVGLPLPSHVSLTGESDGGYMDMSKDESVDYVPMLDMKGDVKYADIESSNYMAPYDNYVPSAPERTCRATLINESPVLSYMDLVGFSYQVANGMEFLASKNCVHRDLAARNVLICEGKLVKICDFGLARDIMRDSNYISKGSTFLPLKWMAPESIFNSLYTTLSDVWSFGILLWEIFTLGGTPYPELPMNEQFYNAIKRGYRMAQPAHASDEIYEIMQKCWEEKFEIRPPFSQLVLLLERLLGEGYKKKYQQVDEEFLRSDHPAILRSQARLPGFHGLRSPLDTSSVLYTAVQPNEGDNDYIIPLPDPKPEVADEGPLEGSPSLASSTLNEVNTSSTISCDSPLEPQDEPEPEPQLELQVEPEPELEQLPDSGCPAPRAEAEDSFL
structure (smiles),measurement,setting,value
"COc1ccc2c(Oc3ccc4c(C(=O)Nc5ccccc5N)cccc4c3)ccnc2c1 [Example 31, N-(2-aminophenyl)-6-(7-methoxyquinolin-4-yloxy)-1-naphthamide]",GI50,human PDGFRβ,46 nM
same,GI50,HUVEC cells,5 nM
same,% inhibition of total HDAC enzyme activity at 30 μM,[1],10.1%
same,Class I HDAC (P21 reporter assay) Fold Induction at 10 μM,Class I HDAC,1.6 Fold
same,GI50,A-498,9.5 µM
same,GI50,A549,17.3 µM
same,GI50,Bel-7402,30 µM
same,GI50,HCT-8,6.6 µM
same,GI50,MCF-7,10.2 µM
same,Body weight (g) end,[2]; [3],24.6 ± 1.3 g
same,Body weight (g) start,[2]; [3],21.1 ± 0.6 g
same,Body weight (g) end,[2]; [4],25.1 ± 1.3 g
same,Body weight (g) start,[2]; [4],19.9 ± 1.3 g
same,Body weight (g) end,[2]; [5],24.2 ± 0.7 g
same,Body weight (g) start,[2]; [5],20.6 ± 1.1 g
same,Body weight (g) end,[2]; [6],22.6 ± 2.4 g
same,Body weight (g) start,[2]; [6],20.0 ± 0.9 g
"COc1ccc2c(Oc3ccc4c(C(=O)NCc5ccc(C(=O)Nc6ccccc6N)cc5)cccc4c3)ccnc2c1 [Example 33, N-(4-((2-aminophenyl)carbamoyl)benzyl)-6-(7-methoxyquinolin-4-yloxy)-1-naphthamide]",GI50,human PDGFRβ,300 nM
same,GI50,HUVEC cells,8 nM
same,% inhibition of total HDAC enzyme activity at 30 μM,[1],39.1%
same,Class I HDAC (P21 reporter assay) Fold Induction at 10 μM,Class I HDAC,2.8 Fold
same,GI50,A-498,1.9 µM
same,GI50,A549,2.1 µM
same,GI50,Bel-7402,2.8 µM
same,GI50,HCT-8,1.5 µM
same,GI50,MCF-7,2 µM

# Reference: US8211901B2, “Naphthamide derivatives as multi-target protein kinase inhibitors and histone deacetylase inhibitors” (Shenzhen Chipscreen Biosciences Ltd., priority 2009, dated 2012)
